target: HSD17B13 (Homo sapiens (Human), UniProt Q7Z5P4); assay: HSD17B13 enzymatic inhibition assay (150 nM or 50 nM HSD17B13); assay type: biochemical; details: 50 nM HSD17B13; read-out: Inhibition of 50 nM of HSD17B13 IC50
Sequence (Q7Z5P4 other isoform, or with tags, fused parts or gaps): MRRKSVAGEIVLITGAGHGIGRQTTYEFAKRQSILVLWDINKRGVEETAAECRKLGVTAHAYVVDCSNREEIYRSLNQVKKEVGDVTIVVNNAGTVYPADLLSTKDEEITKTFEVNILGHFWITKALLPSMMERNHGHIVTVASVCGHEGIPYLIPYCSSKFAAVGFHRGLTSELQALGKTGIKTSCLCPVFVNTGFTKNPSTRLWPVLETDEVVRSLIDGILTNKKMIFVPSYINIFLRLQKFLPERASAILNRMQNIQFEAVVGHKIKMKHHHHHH

Compound | IC50
CC(C)(C)OC(=O)Nc1ccc(CSc2ncc(C(=O)NC3c4ccc(Cl)cc4Oc4cc(Cl)ccc43)c(=O)[nH]2)cc1 [Compound 513, tert-butyl (4-(((5-((3,6-dichloro-9H-xanthen-9-yl)carbamoyl)-6-oxo-1,6-dihydropyrimidin-2-yl)thio)methyl)phenyl)carbamate] | 920 nM
Nc1ccc(CSc2ncc(C(=O)NC3c4ccc(Cl)cc4Oc4cc(Cl)ccc43)c(=O)[nH]2)cc1C(F)(F)F [Compound 522, 2-((4-amino-3-(trifluoromethyl)benzyl)thio)-N-(3,6-dichloro-9H-xanthen-9-yl)-6-oxo-1,6-dihydropyrimidine-5-carboxamide] | 610 nM
Cc1ccc2c(c1)Oc1cccc(C)c1C2NC(=O)c1cc(CCN(C)C)c(C(F)(F)F)[nH]c1=O (stereo not drawn) [Compound 523, N-(1,6-dimethyl-9H-xanthen-9-yl)-5-(2-(dimethylamino)ethyl)-2-oxo-6-(trifluoromethyl)-1,2-dihydropyridine-3-carboxamide] | > 10000 nM
CNCCc1cc(C(=O)NC2c3ccc(C)cc3Oc3cccc(C)c32)c(=O)[nH]c1C(F)(F)F (stereo not drawn) [Compound 524, N-(1,6-dimethyl-9H-xanthen-9-yl)-5-(2-(methylamino)ethyl)-2-oxo-6-(trifluoromethyl)-1,2-dihydropyridine-3-carboxamide] | 9330 nM
CNCc1cc(C(=O)NC2c3ccc(C)cc3Oc3cccc(C)c32)c(=O)[nH]c1C(F)(F)F (stereo not drawn) [Compound 525, N-(1,6-dimethyl-9H-xanthen-9-yl)-5-((methylamino)methyl)-2-oxo-6-(trifluoromethyl)-1,2-dihydropyridine-3-carboxamide] | 6510 nM
Cc1ccc2c(c1)Oc1cccc(C)c1C2NC(=O)c1cc(CN(C)C)c(C(F)(F)F)[nH]c1=O (stereo not drawn) [Compound 526, N-(1,6-dimethyl-9H-xanthen-9-yl)-5-((dimethylamino)methyl)-2-oxo-6-(trifluoromethyl)-1,2-dihydropyridine-3-carboxamide] | 3780 nM
N#Cc1cccc2c1C(NC(=O)c1ccc(C(F)(F)F)[nH]c1=O)c1ccccc1O2 (stereo not drawn) [Compound 527, N-(1-cyano-9H-xanthen-9-yl)-2-oxo-6-(trifluoromethyl)-1,2-dihydropyridine-3-carboxamide] | 990 nM
O=C(NC1c2ccc(Cl)cc2Oc2cccc(Cl)c21)c1cnc(SCc2ccccc2C(F)(F)F)[nH]c1=O (stereo not drawn) [Compound 529, N-(1,6-dichloro-9H-xanthen-9-yl)-6-oxo-2-((2-(trifluoromethyl)benzyl)thio)-1,6-dihydropyrimidine-5-carboxamide] | > 10000 nM
CCc1cccc2c1CCCC2NC(=O)c1ccc(C(F)(F)F)[nH]c1=O (stereo not drawn) [Compound 530, N-(5-ethyl-1,2,3,4-tetrahydronaphthalen-1-yl)-2-oxo-6-(trifluoromethyl)-1,2-dihydropyridine-3-carboxamide] | > 10000 nM
CCCc1cccc2c1CCCC2NC(=O)c1ccc(C(F)(F)F)[nH]c1=O (stereo not drawn) [Compound 531, 2-oxo-N-(5-propyl-1,2,3,4-tetrahydronaphthalen-1-yl)-6-(trifluoromethyl)-1,2-dihydropyridine-3-carboxamide] | > 10000 nM
C=CCc1cccc2c1CCCC2NC(=O)c1ccc(C(F)(F)F)[nH]c1=O (stereo not drawn) [Compound 532, N-(5-allyl-1,2,3,4-tetrahydronaphthalen-1-yl)-2-oxo-6-(trifluoromethyl)-1,2-dihydropyridine-3-carboxamide] | 5200 nM
O=C(NC1c2ccc(Cl)cc2Oc2cc(Cl)ccc21)c1cnc(COc2cccc(C(F)(F)F)c2)[nH]c1=O [Compound 534, N-(3,6-dichloro-9H-xanthen-9-yl)-6-oxo-2-((3-(trifluoromethyl)phenoxy)methyl)-1,6-dihydropyrimidine-5-carboxamide] | 1080 nM
C=CCc1cccc(C(NC(=O)c2ccc(C(F)(F)F)[nH]c2=O)c2ccccc2)c1 (stereo not drawn) [Compound 539, N-((3-allylphenyl)(phenyl)methyl)-2-oxo-6-(trifluoromethyl)-1,2-dihydropyridine-3-carboxamide] | 740 nM
CSc1cc(C)ccc1C(NC(=O)c1ccc(C(F)(F)F)[nH]c1=O)c1ccccc1 (stereo not drawn) [Compound 540, N-((4-methyl-2-(methylthio)phenyl)(phenyl)methyl)-2-oxo-6-(trifluoromethyl)-1,2-dihydropyridine-3-carboxamide] | 1130 nM
CCCC1=C(NC(=O)c2ccc(C(F)(F)F)[nH]c2=O)c2cc(C)ccc2C1=O [Compound 542, N-(5-methyl-1-oxo-2-propyl-1H-inden-3-yl)-2-oxo-6-(trifluoromethyl)-1,2-dihydropyridine-3-carboxamide] | 4670 nM

The next molecules have a lower IC50 than those just listed; values first:

IC50 | Compound
30 nM | Cc1ccc2c(c1)Oc1cc(C)ccc1C2NC(=O)c1cc(-c2ccc(=O)[nH]c2)c(C(F)(F)F)[nH]c1=O [Compound 497, N-(3,6-dimethyl-9H-xanthen-9-yl)-6,6′-dioxo-2-(trifluoromethyl)-1,1′,6,6′-tetrahydro-[3,3′-bipyridine]-5-carboxamide]
20 nM | COc1cc(-c2cc(C(=O)NC3c4ccc(C)cc4Oc4cc(C)ccc43)c(=O)[nH]c2C(F)(F)F)ccn1 [Compound 498, N-(3,6-dimethyl-9H-xanthen-9-yl)-2′-methoxy-6-oxo-2-(trifluoromethyl)-1,6-dihydro-[3,4′-bipyridine]-5-carboxamide]
260 nM | Cc1ccc2c(c1)Oc1cccc(C)c1C2NC(=O)c1cc(Cc2ccccc2)c(C(F)(F)F)[nH]c1=O (stereo not drawn) [Compound 502, 5-benzyl-N-(1,6-dimethyl-9H-xanthen-9-yl)-2-oxo-6-(trifluoromethyl)-1,2-dihydropyridine-3-carboxamide]
230 nM | Cc1ccc2c(c1)Oc1cccc(C)c1C2NC(=O)c1cc(-c2ccncc2)c(C(F)(F)F)[nH]c1=O (stereo not drawn) [Compound 503, N-(1,6-dimethyl-9H-xanthen-9-yl)-6-oxo-2-(trifluoromethyl)-1,6-dihydro-[3,4′-bipyridine]-5-carboxamide]
80 nM | Cc1ccc2c(c1)Oc1cc(C)ccc1C2NC(=O)c1cc(C2=CCCCC2)c(C(F)(F)F)[nH]c1=O [Compound 505, 5-(cyclohex-1-en-1-yl)-N-(3,6-dimethyl-9H-xanthen-9-yl)-2-oxo-6-(trifluoromethyl)-1,2-dihydropyridine-3-carboxamide]
90 nM | Cc1ccc2c(c1)S(=O)(=O)c1cc(C)ccc1C2NC(=O)c1cc(-c2ncccn2)c(C(F)(F)F)[nH]c1=O [Compound 506, N-(3,6-dimethyl-10,10-dioxido-9H-thioxanthen-9-yl)-2-oxo-5-(pyrimidin-2-yl)-6-(trifluoromethyl)-1,2-dihydropyridine-3-carboxamide]
40 nM | Cc1ccc2c(c1)Sc1cc(C)ccc1C2NC(=O)c1cc(-c2ncccn2)c(C(F)(F)F)[nH]c1=O [Compound 507, N-(3,6-dimethyl-9H-thioxanthen-9-yl)-2-oxo-5-(pyrimidin-2-yl)-6-(trifluoromethyl)-1,2-dihydropyridine-3-carboxamide]
90 nM | CCN1CCN(c2cc(C(=O)NC3c4ccc(C)cc4Oc4cc(C)ccc43)c(=O)[nH]c2C(F)(F)F)CC1 [Compound 512, N-(3,6-dimethyl-9H-xanthen-9-yl)-5-(4-ethylpiperazin-1-yl)-2-oxo-6-(trifluoromethyl)-1,2-dihydropyridine-3-carboxamide]
20 nM | Cc1ccc2c(c1)Oc1cc(C)ccc1C2NC(=O)c1cc(Oc2ccccc2)c(C(F)(F)F)[nH]c1=O [Compound 514, N-(3,6-dimethyl-9H-xanthen-9-yl)-2-oxo-5-phenoxy-6-(trifluoromethyl)-1,2-dihydropyridine-3-carboxamide]
30 nM | Cc1ccc2c(c1)Sc1cc(C)ccc1C2NC(=O)c1cc(C)c(C(F)(F)F)[nH]c1=O [Compound 515, N-(3,6-dimethyl-9H-thioxanthen-9-yl)-5-methyl-2-oxo-6-(trifluoromethyl)-1,2-dihydropyridine-3-carboxamide]
200 nM | Cc1ccc2c(c1)Oc1cc(C)ccc1C2NC(=O)c1cc(C2=CCNCC2)c(C(F)(F)F)[nH]c1=O [Compound 516, N-(3,6-dimethyl-9H-xanthen-9-yl)-6-oxo-2-(trifluoromethyl)-1,1′,2′,3′,6,6′-hexahydro-[3,4′-bipyridine]-5-carboxamide]
570 nM | O=C(NC1c2ccc(Cl)cc2Oc2cc(Cl)ccc21)c1cnc(COc2ccc(C(F)(F)F)cc2)[nH]c1=O [Compound 517, N-(3,6-dichloro-9H-xanthen-9-yl)-6-oxo-2-((4-(trifluoromethyl)phenoxy)methyl)-1,6-dihydropyrimidine-5-carboxamide]
560 nM | Cc1ccc2c(c1)NCCC2NC(=O)c1ccc(C(F)(F)F)[nH]c1=O (stereo not drawn) [Compound 518, N-(7-methyl-1,2,3,4-tetrahydroquinolin-4-yl)-2-oxo-6-(trifluoromethyl)-1,2-dihydropyridine-3-carboxamide]
50 nM | Cc1ccc2c(c1)Sc1cc(C)ccc1C2NC(=O)c1cc(Br)c(C(F)(F)F)[nH]c1=O [Compound 535, 5-bromo-N-(3,6-dimethyl-9H-thioxanthen-9-yl)-2-oxo-6-(trifluoromethyl)-1,2-dihydropyridine-3-carboxamide]
320 nM | C=Cc1ccc2c(c1)C(NC(=O)c1ccc(C(F)(F)F)[nH]c1=O)c1ccccc1S2 (stereo not drawn) [Compound 536, 2-oxo-6-(trifluoromethyl)-N-(2-vinyl-9H-thioxanthen-9-yl)-1,2-dihydropyridine-3-carboxamide]
150 nM | CCc1ccc2c(c1)C(NC(=O)c1ccc(C(F)(F)F)[nH]c1=O)c1ccccc1S2 (stereo not drawn) [Compound 537, N-(2-ethyl-9H-thioxanthen-9-yl)-2-oxo-6-(trifluoromethyl)-1,2-dihydropyridine-3-carboxamide]
40 nM | C=Cc1cc(C(=O)NC2c3ccc(C)cc3Sc3cc(C)ccc32)c(=O)[nH]c1C(F)(F)F [Compound 538, N-(3,6-dimethyl-9H-thioxanthen-9-yl)-2-oxo-6-(trifluoromethyl)-5-vinyl-1,2-dihydropyridine-3-carboxamide]
60 nM | Cc1ccc2c(c1)O[C@@H]1CCCC[C@H]1[C@H]2NC(=O)c1ccc(C(F)(F)F)[nH]c1=O [Compound 541, N-((4aR,9R,9aS)-6-methyl-2,3,4,4a,9,9a-hexahydro-1H-xanthen-9-yl)-2-oxo-6-(trifluoromethyl)-1,2-dihydropyridine-3-carboxamide]
